The test system of this assay is dendritic cells in the draining lymph nodes. The assay can be described thus: Dendritic cell phenotype in draining lymph nodes after subcutaneous vaccination. It counts as in vivo, C57BL/6J mice. As to conditions: antigen alone as compared to vehicle-treated animals. As to the method:
The activity of the polymeric adjuvant B18 was assessed in C57BL/6J mice. Vaccines were prepared by admixing a model peptide antigen (SIINFEKL) with B18 nanoparticles and injected subcutaneously into mice. Following three injections placed three days apart, animals were sacrificed and dendritic cell phenotype in the draining lymph nodes were analyzed using flow cytometry.

The results in this text go back to patent publication US12377153B2, “Poly(beta-thioester) polymers and polymeric nanoparticles” (MASSACHUSETTS INSTITUTE OF TECHNOLOGY, priority 2019, dated 2025).

On to SIINFEKL, for which the dendritic cell activation result is reported as “no appreciable dendritic cell activation”.
